Experimental findings from US12297235B2, “Synthetic peptide compounds and methods of use” (REALTA HOLDINGS, LLC, priority 2015, dated 2025) are described below.

Square brackets hold non-standard residues; d marks the D form. Peptide text beside a SMILES is read from it. Sar = CNCC(=O)O

Assay in one data set: not given
Conditions: 0.77 mM peptide in factor B-depleted serum; mean of triplicate; standardized to water (soluble) or DMSO (insoluble). The data set is classed as biochemical, human. Here is the method:
Peptides were diluted to 0.77 mM in factor B-depleted human sera (Complement Technologies, Inc.) and incubated for 1 hour at 37° C. These peptides were then diluted with GVBS^++ to equal 2.5% serum, of which 0.25 ml was combined with 0.4 ml of GVBS^++ and 0.1 ml of sensitized sheep red blood cells (RBCs) and again incubated for 1 hour at 37° C. The procedure was stopped by the addition of 4.0 ml of GVBS^−− centrifuged for 5 minutes at 1,620×g, and the absorbance of the supernatants was read at 412 nm in a spectrophotometer. The percent lysis of each sample was standardized to that of the serum only control.
The final concentration of peptide in factor B-depleted serum was 0.77 mM. Each peptide was evaluated in triplicate and the mean values are reported. […] In the hemolytic assay, soluble peptides are standardized to water and insoluble peptides standardized to DMSO.
Polar Assortant peptides were serially diluted in undiluted factor B-depleted human sera (Complement Technologies, Inc.) and incubated for 1 hour at 37° C. Water, GVBS^++ and DMSO were included as controls. These peptides were then diluted with GVBS^++ to equal 2.5% serum, of which 0.25 ml was combined with 0.4 ml of GVBS^++ and 0.1 ml of sensitized sheep red blood cells (RBCs) and again incubated for 1 hour at 37° C. The procedure was stopped by the addition of 4.0 ml of GVBS^−−, centrifuged for 5 minutes at 1,620×g, and the absorbance of the supernatants was read at 412 nm in a spectrophotometer. The percent lysis of each sample was standardized to that of the serum only control.
The final concentration of peptide in factor B-depleted serum was 0.77 mM. […] In the hemolytic assay, soluble peptides were standardized to water and insoluble peptides standardized to DMSO.
The final concentration of peptide in factor B-depleted serum was 0.77 mM. […] In the hemolytic assay, soluble peptides are standardized to water and insoluble peptides standardized to DMSO.
Molecule `CC[C@H](C)[C@H](N)C(=O)N[C@@H](C)C(=O)N[C@@H](CC(C)C)C(=O)N[C@H](C(=O)N[C@@H](CC(C)C)C(=O)N[C@@H](CCC(=O)O)C(=O)N1CCC[C@H]1C(=O)N[C@H](C(=O)N[C@@H](CS)C(=O)N[C@@H](CS)C(=O)N[C@@H](CCC(N)=O)C(=O)N[C@@H](CCC(=O)O)C(=O)N[C@@H](CCCNC(=N)N)C(=O)N[C@@H](C)C(=O)N[C@@H](C)C(=O)O)[C@@H](C)CC)[C@@H](C)CC` [PA] returned a hemolysis of 3.15%.

Still in this data set, the particulars now being: 0.77 mM peptide in factor B-depleted serum; standardized to water or DMSO; Table 6.
In turn, `CC[C@H](C)[C@H](N)C(=O)N[C@@H](C)C(=O)N[C@@H](CC(C)C)C(=O)N[C@H](C(=O)N[C@@H](CC(C)C)C(=O)N[C@@H](CCC(=O)O)C(=O)N1CCC[C@H]1C(=O)N[C@H](C(=O)N[C@@H](CS)C(=O)N[C@@H](CS)C(=O)N[C@@H](CCC(N)=O)C(=O)N[C@@H](CCC(=O)O)C(=O)N[C@@H](CCCNC(=N)N)C(=O)N[C@@H](C)C(=O)N[C@@H](C)C(=O)NCCOCCOCCC(=O)O)[C@@H](C)CC)[C@@H](C)CC` [PA-dPEG02] yielded a hemolysis of 11.6%. On the same count and under the same terms, for `CC[C@H](C)[C@H](N)C(=O)N[C@@H](C)C(=O)N[C@@H](CC(C)C)C(=O)N[C@H](C(=O)N[C@@H](CC(C)C)C(=O)N[C@@H](CCC(=O)O)C(=O)N1CCC[C@H]1C(=O)N[C@H](C(=O)N[C@@H](CS)C(=O)N[C@@H](CS)C(=O)N[C@@H](CCC(N)=O)C(=O)N[C@@H](CCC(=O)O)C(=O)N[C@@H](CCCNC(=N)N)C(=O)N[C@@H](C)C(=O)N[C@@H](C)C(=O)NCCOCCOCCOCCC(=O)O)[C@@H](C)CC)[C@@H](C)CC` [PA-dPEG03] the value was 12.6%. For the molecule `CC[C@H](C)[C@H](N)C(=O)N[C@@H](C)C(=O)N[C@@H](CC(C)C)C(=O)N[C@H](C(=O)N[C@@H](CC(C)C)C(=O)N[C@@H](CCC(=O)O)C(=O)N1CCC[C@H]1C(=O)N[C@H](C(=O)N[C@@H](CS)C(=O)N[C@@H](CS)C(=O)N[C@@H](CCC(N)=O)C(=O)N[C@@H](CCC(=O)O)C(=O)N[C@@H](CCCNC(=N)N)C(=O)N[C@@H](C)C(=O)N[C@@H](C)C(=O)NCCOCCOCCOCCOCCC(=O)O)[C@@H](C)CC)[C@@H](C)CC` [PA-dPEG04], the hemolysis is 12.4%. `CC[C@H](C)[C@H](N)C(=O)N[C@@H](C)C(=O)N[C@@H](CC(C)C)C(=O)N[C@H](C(=O)N[C@@H](CC(C)C)C(=O)N[C@@H](CCC(=O)O)C(=O)N1CCC[C@H]1C(=O)N[C@H](C(=O)N[C@@H](CS)C(=O)N[C@@H](CS)C(=O)N[C@@H](CCC(N)=O)C(=O)N[C@@H](CCC(=O)O)C(=O)N[C@@H](CCCNC(=N)N)C(=O)N[C@@H](C)C(=O)N[C@@H](C)C(=O)NCCOCCOCCOCCOCCOCCOCCC(=O)O)[C@@H](C)CC)[C@@H](C)CC` [PA-dPEG06] came in with a hemolysis of 44.8%. Molecule `CC[C@H](C)[C@H](N)C(=O)N[C@@H](C)C(=O)N[C@@H](CC(C)C)C(=O)N[C@H](C(=O)N[C@@H](CC(C)C)C(=O)N[C@@H](CCC(=O)O)C(=O)N1CCC[C@H]1C(=O)N[C@H](C(=O)N[C@@H](CS)C(=O)N[C@@H](CS)C(=O)N[C@@H](CCC(N)=O)C(=O)N[C@@H](CCC(=O)O)C(=O)N[C@@H](CCCNC(=N)N)C(=O)N[C@@H](C)C(=O)N[C@@H](C)C(=O)NCCOCCOCCOCCOCCOCCOCCOCCOCCC(=O)O)[C@@H](C)CC)[C@@H](C)CC` [PA-dPEG08] returned a hemolysis of 34.7%. Same read-out and setting: for `CC[C@H](C)[C@H](N)C(=O)N[C@@H](C)C(=O)N[C@@H](CC(C)C)C(=O)N[C@H](C(=O)N[C@@H](CC(C)C)C(=O)N[C@@H](CCC(=O)O)C(=O)N1CCC[C@H]1C(=O)N[C@H](C(=O)N[C@@H](CS)C(=O)N[C@@H](CS)C(=O)N[C@@H](CCC(N)=O)C(=O)N[C@@H](CCC(=O)O)C(=O)N[C@@H](CCCNC(=N)N)C(=O)N[C@@H](C)C(=O)N[C@@H](C)C(=O)NCCOCCOCCOCCOCCOCCOCCOCCOCCOCCOCCOCCOCCC(=O)O)[C@@H](C)CC)[C@@H](C)CC` [PA-dPEG12] the value was 11.4%; for `CC[C@H](C)[C@H](N)C(=O)N[C@@H](C)C(=O)N[C@@H](CC(C)C)C(=O)N[C@H](C(=O)N[C@@H](CC(C)C)C(=O)N[C@@H](CCC(=O)O)C(=O)N1CCC[C@H]1C(=O)N[C@H](C(=O)N[C@@H](CS)C(=O)N[C@@H](CS)C(=O)N[C@@H](CCC(N)=O)C(=O)N[C@@H](CCC(=O)O)C(=O)N[C@@H](CCCNC(=N)N)C(=O)N[C@@H](C)C(=O)N[C@@H](C)C(=O)NCCOCCOCCOCCOCCOCCOCCOCCOCCOCCOCCOCCOCCOCCOCCOCCOCCC(=O)O)[C@@H](C)CC)[C@@H](C)CC` [PA-dPEG16], 12%; for `CC[C@H](C)[C@H](N)C(=O)N[C@@H](C)C(=O)N[C@@H](CC(C)C)C(=O)N[C@H](C(=O)N[C@@H](CC(C)C)C(=O)N[C@@H](CCC(=O)O)C(=O)N1CCC[C@H]1C(=O)N[C@H](C(=O)N[C@@H](CS)C(=O)N[C@@H](CS)C(=O)N[C@@H](CCC(N)=O)C(=O)N[C@@H](CCC(=O)O)C(=O)N[C@@H](CCCNC(=N)N)C(=O)N[C@@H](C)C(=O)N[C@@H](C)C(=O)NCCOCCOCCOCCOCCOCCOCCOCCOCCOCCOCCOCCOCCOCCOCCOCCOCCOCCOCCOCCOCCC(=O)O)[C@@H](C)CC)[C@@H](C)CC` [PA-dPEG20], 11.4%.

Another data set can be described thus: Solubility in water. The format is physicochemical. The conditions noted are these: Table 7, PEGylated and Sar/Ala substitution peptides.
Turning to `CC[C@H](C)[C@H](N)C(=O)N[C@@H](C)C(=O)N[C@@H](CC(C)C)C(=O)N[C@H](C(=O)N[C@@H](CC(C)C)C(=O)N(C)CC(=O)N1CCC[C@H]1C(=O)N[C@H](C(=O)N(C)CC(=O)N[C@@H](CS)C(=O)N[C@@H](CCC(N)=O)C(=O)N[C@@H](CCC(=O)O)C(=O)N[C@@H](CCCNC(=N)N)C(=O)N[C@@H](C)C(=O)N[C@@H](C)C(=O)O)[C@@H](C)CC)[C@@H](C)CC` [Peptide E6SarC9Sar, IALIL(Sar)PI(Sar)CQERAA] (H-IALIL[Sar]PI[Sar]CQERAA-OH), the Solubility in water result is recorded as “Yes”. Regarding `CC[C@H](C)[C@H](N)C(=O)N[C@@H](C)C(=O)N[C@@H](CC(C)C)C(=O)N[C@H](C(=O)N[C@@H](CC(C)C)C(=O)N(C)CC(=O)N(C)CC(=O)N[C@H](C(=O)N[C@@H](CS)C(=O)N[C@@H](CS)C(=O)N[C@@H](CCC(N)=O)C(=O)N[C@@H](CCC(=O)O)C(=O)N[C@@H](CCCNC(=N)N)C(=O)N[C@@H](C)C(=O)N[C@@H](C)C(=O)O)[C@@H](C)CC)[C@@H](C)CC` [Peptide E6SarP7Sar] (H-IALIL[Sar][Sar]ICCQERAA-OH; N-terminus and C-terminus assumed), the Solubility in water result was “Yes”. The same measure, in the same setting: in the case of `CC[C@H](C)[C@H](N)C(=O)N[C@@H](C)C(=O)N[C@@H](CC(C)C)C(=O)N[C@H](C(=O)N[C@@H](CC(C)C)C(=O)N[C@@H](CCC(=O)O)C(=O)N1CCC[C@H]1C(=O)N[C@H](C(=O)N(C)CC(=O)N[C@@H](CS)C(=O)N(C)CC(=O)N[C@@H](CCC(=O)O)C(=O)N[C@@H](CCCNC(=N)N)C(=O)N[C@@H](C)C(=O)N[C@@H](C)C(=O)O)[C@@H](C)CC)[C@@H](C)CC` [Peptide Q11SarC9Sar] (H-IALILEPI[Sar]C[Sar]ERAA-OH) it was “Yes”; in that of `CC[C@H](C)[C@H](N)C(=O)N[C@@H](C)C(=O)N[C@@H](CC(C)C)C(=O)N[C@H](C(=O)N[C@@H](CC(C)C)C(=O)N[C@@H](CCC(=O)O)C(=O)N(C)CC(=O)N[C@H](C(=O)N[C@@H](CS)C(=O)N[C@@H](CS)C(=O)N(C)CC(=O)N[C@@H](CCC(=O)O)C(=O)N[C@@H](CCCNC(=N)N)C(=O)N[C@@H](C)C(=O)N[C@@H](C)C(=O)O)[C@@H](C)CC)[C@@H](C)CC` [Peptide Q11SarP7Sar, IALILE(Sar)ICC(Sar)ERAA] (H-IALILE[Sar]ICC[Sar]ERAA-OH; N-terminus and C-terminus assumed), “Yes”. On the same count and under the same terms, for `CC[C@H](C)[C@H](N)C(=O)N[C@@H](C)C(=O)N[C@@H](CC(C)C)C(=O)N[C@H](C(=O)N[C@@H](CC(C)C)C(=O)N[C@@H](CCC(=O)O)C(=O)N1CCC[C@H]1C(=O)N[C@H](C(=O)N(C)CC(=O)N[C@@H](CS)C(=O)N[C@@H](CCC(N)=O)C(=O)N[C@@H](CCC(=O)O)C(=O)N(C)CC(=O)N[C@@H](C)C(=O)N[C@@H](C)C(=O)O)[C@@H](C)CC)[C@@H](C)CC` [Peptide R13SarC9Sar] (H-IALILEPI[Sar]CQE[Sar]AA-OH) the value was “No”. Same read-out and setting: for `CC[C@H](C)[C@H](N)C(=O)N[C@@H](C)C(=O)N[C@@H](CC(C)C)C(=O)N[C@H](C(=O)N[C@@H](CC(C)C)C(=O)N[C@@H](CCC(=O)O)C(=O)N(C)CC(=O)N[C@H](C(=O)N[C@@H](CS)C(=O)N[C@@H](CS)C(=O)N[C@@H](CCC(N)=O)C(=O)N[C@@H](CCC(=O)O)C(=O)N(C)CC(=O)N[C@@H](C)C(=O)N[C@@H](C)C(=O)O)[C@@H](C)CC)[C@@H](C)CC` [Peptide R13SarP7Sar, IALILE(Sar)ICCQE(Sar)AA] (H-IALILE[Sar]ICCQE[Sar]AA-OH) the value was “No”.
